According to the CheMixHub ionic liquid set:

Assay: xn = mol fraction of the nth substance listed

C1CC[NH2+]C1.O=[N+]([O-])[O-] + CC1COC(=O)O1
100 kPa
Conditions	electrical conductivity [S/m]	viscosity [mPa·s]
283.15 K, x2 = 0.38	–	23
298.15 K, x2 = 0.8865	0.99	–
298.15 K, x2 = 0.8938	0.93	–
313.15 K, x2 = 0	–	21
323.15 K, x2 = 0.5	–	6.1
333.15 K, x2 = 0.7	–	3.1
333.15 K, x2 = 0.78	–	2.6
343.15 K, x2 = 0.38	–	5.2
343.15 K, x2 = 0.6	–	3.4
343.15 K, x2 = 0.7	–	2.7
353.15 K, x2 = 0	–	9.3
353.15 K, x2 = 0.6	–	2.9
353.15 K, x2 = 0.7	–	2.3

C[NH+](C)C.O=S(=O)([N-]S(=O)(=O)C(F)(F)F)C(F)(F)F + CC1COC(=O)O1
298.15 K, 101 kPa
Conditions	electrical conductivity [S/m]
x1 = 0.0001	0.003
x1 = 0.0137	0.352
x2 = 0.6243	1.61
x2 = 0.7417	1.64
x2 = 0.8037	1.53
x2 = 0.979	0.476

CC(O)C(=O)[O-].CCC[N+]1(C)CCN(C)CC1 + CC#N
298 K, 101 kPa
Conditions	electrical conductivity [S/m]
x2 = 0.824	1.63
x2 = 0.848	1.79
x2 = 0.879	1.94

C[NH+](C)C.O=S(=O)([N-]S(=O)(=O)C(F)(F)F)C(F)(F)F + CC#N
101 kPa
Conditions	electrical conductivity [S/m]
298.15 K, x2 = 0.66	4.82
303.15 K, x2 = 0.86	6.87

Cn1cc[n+](CCCN)c1.F[B-](F)(F)F + CC#N
electrical conductivity [S/m], 101 kPa, frequency 3 MHz
Conditions	x1 = 0.1001	x1 = 0.2005	x1 = 0.3	x1 = 0.399	x1 = 0.4996	x1 = 0.598	x1 = 0.6975	x1 = 0.7983	x1 = 0.8987	x1 = 1
288.15 K	1.69	1.25	0.915	0.614	0.416	0.281	0.168	0.088	0.044	0.011
293.15 K	1.94	1.49	1.103	0.749	0.519	0.35	0.211	0.117	0.062	0.018
298.15 K	2.243	1.742	1.309	0.906	0.625	0.427	0.267	0.153	0.085	0.026
303.15 K	2.56	2.036	1.535	1.08	0.746	0.515	0.329	0.195	0.112	0.04
308.15 K	2.89	2.343	1.79	1.27	0.874	0.611	0.402	0.243	0.144	0.055
313.15 K	3.24	2.68	2.06	1.48	1.021	0.721	0.487	0.301	0.182	0.072
318.15 K	3.622	3.05	2.36	1.7	1.17	0.844	0.58	0.364	0.225	0.094
323.15 K	4.04	3.46	2.68	1.938	1.344	0.982	0.692	0.437	0.276	0.124

viscosity [mPa·s], 101 kPa
Conditions	x1 = 0.1001	x1 = 0.2005	x1 = 0.3	x1 = 0.399	x1 = 0.4996	x1 = 0.598	x1 = 0.6975	x1 = 0.7983	x1 = 0.8987	x1 = 1
288.15 K	18.13	36	55.18	75.79	98.1	121.5	147	174.5	202.6	231.2
293.15 K	13.81	27.35	42.52	58.84	76.44	95.92	116.8	139.6	161.9	185.4
298.15 K	10.64	21.28	33.13	46.19	60.38	76.12	93.68	112	130.2	149.6
303.15 K	8.386	16.73	26.24	36.56	48.34	61.21	75.42	90.05	104.8	121.1
308.15 K	6.804	13.48	21.1	29.46	38.98	49.81	61.47	74.04	86.51	100.2
313.15 K	5.588	11.04	17.16	24.04	32.08	40.8	50.47	61.67	71.62	83.06
318.15 K	4.761	9.062	14.08	19.9	26.59	33.85	41.94	51.42	59.82	69.26
323.15 K	4.016	7.65	11.81	16.54	22.05	28.29	35.74	43.45	50.53	58.45

CC(=O)[O-].CCCC[P+](CCCC)(CCCC)CCCC + CC(=O)[O-].CCCC[n+]1ccn(C)c1
101 kPa
Conditions	viscosity [mPa·s]
313.15 K, x2 = 0.751	246
323.15 K, x2 = 0.5018	169.2

CC(=O)[O-].Cn1cc[nH+]c1 + CC(=O)[O-].C[NH+]1CCCC1
Conditions	viscosity [mPa·s]
298.15 K, 100 kPa, x1 = 1	6.22

CCOS(=O)(=O)[O-].CC[n+]1ccn(C)c1 + CC(=O)c1ccccc1
100 kPa, x2 = 0
Conditions	viscosity [mPa·s]
313.15 K	40
333.15 K	20.4

CC[n+]1ccn(C)c1.F[P-](F)(F)(F)(F)F + CC(C)C[C@H](N)C(=O)O + O
100 kPa
Conditions	electrical conductivity, 298.15 K [S/m]	electrical conductivity, 303.15 K [S/m]	electrical conductivity, 308.15 K [S/m]	viscosity, 298.15 K [mPa·s]	viscosity, 303.15 K [mPa·s]	viscosity, 308.15 K [mPa·s]
x2 = 0.0001802, x1 = 1.802e-05	0.011	0.0123	0.0135	0.925	0.857	0.783
x2 = 0.0001803, x1 = 5.405e-05	0.0293	0.0326	0.0354	0.94	0.862	0.788
x2 = 0.0001804, x1 = 9.008e-05	0.0464	0.0517	0.0561	0.955	0.866	0.793
x2 = 0.0004522, x1 = 1.801e-05	0.0109	0.0122	0.0133	0.933	0.864	0.791
x2 = 0.0004524, x1 = 5.403e-05	0.0295	0.0328	0.0353	0.946	0.868	0.795
x2 = 0.0004526, x1 = 9.005e-05	0.0461	0.0514	0.0557	0.962	0.876	0.802
x2 = 0.0007258, x1 = 1.801e-05	0.0111	0.0122	0.0135	0.94	0.872	0.799
x2 = 0.0007262, x1 = 5.402e-05	0.0293	0.0326	0.0351	0.957	0.879	0.805
x2 = 0.0007265, x1 = 9.003e-05	0.0458	0.051	0.0558	0.973	0.885	0.812
x2 = 0.0009976, x1 = 1.8e-05	0.0106	0.0118	0.013	0.947	0.88	0.806
x2 = 0.000998, x1 = 5.4e-05	0.0288	0.032	0.0348	0.964	0.885	0.811
x2 = 0.0009985, x1 = 9e-05	0.0451	0.0505	0.055	0.981	0.895	0.82
x2 = 0.001273, x1 = 1.8e-05	0.011	0.0122	0.0134	0.955	0.888	0.814
x2 = 0.001273, x1 = 5.399e-05	0.0285	0.0318	0.0345	0.973	0.895	0.821
x2 = 0.001274, x1 = 8.998e-05	0.0449	0.0502	0.0545	0.991	0.904	0.827
x2 = 0.001546, x1 = 1.799e-05	0.0112	0.0123	0.0136	0.961	0.895	0.822
x2 = 0.001547, x1 = 5.397e-05	0.0283	0.0315	0.0344	0.982	0.905	0.831
x2 = 0.001547, x1 = 8.995e-05	0.0445	0.0493	0.0541	1	0.912	0.841

CCCCCC[n+]1ccn(C)c1.O=[N+]([O-])[O-] + CC(C)O
viscosity [mPa·s], 100 kPa
Conditions	293.15 K	298.15 K	303.15 K	308.15 K	313.15 K	318.15 K	323.15 K
x1 = 0.0817	6.79	5	3.85	2.97	2.39	2.01	1.65
x1 = 0.1594	16	11.18	7.97	5.99	4.67	3.68	2.88
x1 = 0.2402	32	23	17	12.69	9.5	7.25	5.63
x1 = 0.3493	66	47.7	34	26.9	21	16.7	12.75
x1 = 0.4408	111	79.5	55.4	43.2	34.4	27.2	21.3
x1 = 0.5609	187	136.6	91	70	55.8	43.5	34
x1 = 0.6502	266	193	122.4	94.1	74.7	58.3	44.5
x1 = 0.7417	363	265	164.3	123.7	96	75.4	58
x1 = 0.8518	505	372	232	168.8	128.2	101.2	78.6
x1 = 0.9396	664	467	306	218	160.5	124	96.7
x1 = 1	804	545	369	258	186	140.2	110.9

CCCC[n+]1ccn(C)c1.O=[N+]([O-])[O-] + CC(C)O
100 kPa
Conditions	viscosity [mPa·s]
293.15 K, x1 = 0.1596	6.9
293.15 K, x1 = 0.6506	53
293.15 K, x1 = 0.7413	70
298.15 K, x1 = 0.1596	6
298.15 K, x1 = 0.2405	9.3
298.15 K, x1 = 0.7413	56
298.15 K, x1 = 0.8515	82
303.15 K, x1 = 0.1596	5.2
303.15 K, x1 = 0.8515	63
303.15 K, x1 = 0.9396	90
308.15 K, x1 = 0.2405	6.6
308.15 K, x1 = 0.8515	51
308.15 K, x1 = 0.9396	72
308.15 K, x1 = 1	97
313.15 K, x1 = 0.3495	9
313.15 K, x1 = 0.9396	59
313.15 K, x1 = 1	75
318.15 K, x1 = 0.2405	5.2
318.15 K, x1 = 0.3495	7.9
318.15 K, x1 = 1	56
323.15 K, x1 = 0.3495	7.2

CC[n+]1ccn(CCOC)c1.N#C[S-] + CC(C)O
viscosity [mPa·s], 100 kPa
Conditions	x1 = 0.1	x1 = 0.1998	x1 = 0.3234	x1 = 0.3998	x1 = 0.5003	x1 = 0.6	x1 = 0.697	x1 = 0.8002	x1 = 0.8991	x1 = 1
288.15 K	4.25	6.2	10.24	15.05	19.9	28.1	38.6	54.1	72.5	93.1
293.15 K	3.66	5.32	8.77	12.96	16.8	23	31.1	42.7	56.8	70.8
298.15 K	3.18	4.62	7.6	11.21	14.12	19.3	25.7	34.4	45	55.8
303.15 K	2.79	4.05	6.64	9.42	11.99	16.48	21.6	28.2	36.3	44.3
308.15 K	2.45	3.58	5.82	8.25	10.28	14.1	18.7	23.5	29.9	36
313.15 K	2.17	3.18	5.17	7.23	8.91	12.18	15.97	19.8	24.9	29.7
318.15 K	1.93	2.84	4.6	6.27	7.78	10.62	13.55	17.18	21.1	24.9
